{
  "source": "patent US5760048A",
  "about": "“Alpha-mercaptoacrylic acid derivatives having calpain inhibitory activity” (Warner-Lambert Company, priority 1996, dated 1998)",
  "key": {"[1]": {"system": "spectrin breakdown in rat cortical cell cultures", "experiment": "Spectrin Breakdown Measurement (immunoblot)", "assay_type": "cell-based", "settings": "NMDA-treated cortical cells, 4-hour post-NMDA", "protocol": "Rat cortical cell cultures were treated with NMDA in the absence or presence of calpain inhibiting compounds as described in \"Assay of LDH\" above. At the end of the 4-hour post-NMDA incubation, cells were lysed with 300 μL buffer containing 20 mM Tris-HCL (pH 7.4 at 4° C.), 1% SDS, 5 mM EGTA, 5 mM EDTA, 1 mM DTT, and various protease inhibitors. Total cellular protein was precipitated by 100 μL of 100% trichloroacetic acid. The samples were centrifuged and the pelleted protein solubilized with 50 μl of 3M Tris base. […] The blots were then probed with rabbit antibrain spectrin antibody (primary antibody) followed by alkaline phosphatase-conjugated goat antirabbit immunoglobulin G antibody (secondary antibody). […] The SBP were quantified by densitometry (BioRad Model 620)."}, "calpain I [2]": {"target": "T1, calpain I (Homo sapiens, UniProt P07384)", "T1 sequence (P07384 1-714)": "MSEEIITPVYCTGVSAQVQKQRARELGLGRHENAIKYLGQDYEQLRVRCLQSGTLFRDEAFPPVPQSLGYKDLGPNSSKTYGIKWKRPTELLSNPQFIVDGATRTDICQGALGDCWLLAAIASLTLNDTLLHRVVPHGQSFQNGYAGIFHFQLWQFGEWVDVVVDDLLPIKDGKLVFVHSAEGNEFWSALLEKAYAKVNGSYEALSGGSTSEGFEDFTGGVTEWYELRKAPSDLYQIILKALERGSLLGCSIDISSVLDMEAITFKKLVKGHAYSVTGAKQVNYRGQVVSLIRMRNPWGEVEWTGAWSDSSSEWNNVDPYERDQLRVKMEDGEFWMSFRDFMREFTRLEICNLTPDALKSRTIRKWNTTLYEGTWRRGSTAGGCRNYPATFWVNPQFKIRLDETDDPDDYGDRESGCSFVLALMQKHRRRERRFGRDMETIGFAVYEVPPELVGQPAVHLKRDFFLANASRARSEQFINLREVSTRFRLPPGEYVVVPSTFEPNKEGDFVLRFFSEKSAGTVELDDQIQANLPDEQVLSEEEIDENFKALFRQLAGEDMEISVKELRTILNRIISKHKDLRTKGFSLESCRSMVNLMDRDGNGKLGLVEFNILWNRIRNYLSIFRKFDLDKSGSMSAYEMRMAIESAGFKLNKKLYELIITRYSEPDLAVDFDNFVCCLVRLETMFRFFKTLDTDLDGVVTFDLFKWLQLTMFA", "T1 sequence (P04632 1-268 partner)": "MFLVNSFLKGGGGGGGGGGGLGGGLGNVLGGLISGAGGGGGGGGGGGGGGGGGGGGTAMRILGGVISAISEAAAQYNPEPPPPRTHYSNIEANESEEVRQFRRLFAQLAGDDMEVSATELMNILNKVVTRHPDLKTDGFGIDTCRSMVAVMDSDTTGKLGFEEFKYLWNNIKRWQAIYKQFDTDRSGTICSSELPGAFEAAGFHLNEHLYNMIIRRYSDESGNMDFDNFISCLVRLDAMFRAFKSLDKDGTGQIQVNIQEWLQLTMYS", "experiment": "Assay of Calpain Activity (casein substrate, microplate, Coomassie blue)", "assay_type": "biochemical", "set-up": "Calpain I was purified from human erythrocytes; from tissue; host or cells: human erythrocytes", "protocol": "(§1) In 250 μL of reaction mixture, substrate casein (0.5 mg/mL) was incubated with 0.01 unit (80-120 ng) calpain I, 20 mM dithiothreitol (DTT), 50 mM Tris-HCl (pH 7.4 at 25° C.), and 4 mM CaCl2 at 25° C. for 60 minutes. Two 100-μL aliquots were taken for Coomassie blue binding analysis to quantify the remaining casein.\nCalpain I was assayed as described (α-mercaptoacrylic acid). […] Inhibition of these proteases are presented as IC50."}, "[3]": {"system": "Fetal rat cortical cell cultures", "experiment": "Assay of Lactate Dehydrogenase (LDH): NMDA-induced LDH release", "assay_type": "cell-based", "settings": "500 μM NMDA; 200 μM calpain inhibiting compound; FIG. II", "protocol": "Seventeen-day-old cultures were pretreated with 200 μM calpain inhibiting compound (when added) for 1 hour before treatment of 500 μM N-methyl-D-aspartate (NMDA) for 30 minutes (in the absence or the presence of the compound)."}, "papain": {"target": "T2, papain (Carica papaya, UniProt P00784)", "T2 construct": "purchased Sigma P3125; host or cells: papaya latex", "T2 sequence (P00784 134-345)": "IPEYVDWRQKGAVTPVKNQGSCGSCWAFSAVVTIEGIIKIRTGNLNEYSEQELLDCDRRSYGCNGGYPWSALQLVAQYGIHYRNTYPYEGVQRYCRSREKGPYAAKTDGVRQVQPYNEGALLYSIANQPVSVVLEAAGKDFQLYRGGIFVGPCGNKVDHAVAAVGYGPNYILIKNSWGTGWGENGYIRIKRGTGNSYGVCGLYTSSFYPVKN", "experiment": "Selectivity: papain protease assay (casein substrate)", "assay_type": "biochemical", "settings": "Table II; read-out: Inhibitory Activity of Thiol-Acrylates, Papain (IC50)", "protocol": "(§2) Calpain I was assayed as described (α-mercaptoacrylic acid). Ten to 20 ng papain (papaya latex, Sigma, P3125), 1.25 μg trypsin (bovine pancreas, Sigma, T8003), and 5 μg thermolysin (Bacillus thermoproteolyticus, Sigma, P1512) were assayed using 0.5 mg/mL casein as substrate in the microplate format (250 μL reaction volume), essentially as described by Buroker-Kilgore M., Wang K. K. W., Anal Biochem 1993;208:387-392. Inhibition of these proteases are presented as IC50."}, "thermolysin": {"target": "T3, thermolysin (Bacillus thermoproteolyticus, UniProt P00800)", "T3 construct": "purchased Sigma P1512; host or cells: Bacillus thermoproteolyticus", "T3 sequence (P00800 233-548)": "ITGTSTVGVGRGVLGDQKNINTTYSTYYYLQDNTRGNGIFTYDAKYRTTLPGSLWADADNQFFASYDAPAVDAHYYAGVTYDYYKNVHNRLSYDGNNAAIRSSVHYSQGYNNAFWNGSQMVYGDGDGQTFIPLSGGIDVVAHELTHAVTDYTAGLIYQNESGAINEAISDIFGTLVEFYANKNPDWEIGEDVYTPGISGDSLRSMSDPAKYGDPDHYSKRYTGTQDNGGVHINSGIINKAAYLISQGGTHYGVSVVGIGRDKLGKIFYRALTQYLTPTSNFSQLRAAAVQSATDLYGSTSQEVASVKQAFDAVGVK", "experiment": "Selectivity: thermolysin protease assay (casein substrate)", "assay_type": "biochemical", "protocol": "as §2"}, "calpain I [4]": {"target": "T1, calpain I", "experiment": "Casein Breakdown by calpain I (SDS-PAGE)", "assay_type": "biochemical", "set-up": "casein substrate", "settings": "30 μM compound, 0.8 nM calpain I, all time points up to 120 minutes", "protocol": "Casein (15 μM) was incubated with 0.8 nM calpain I, 15 mM DTT, 45 mM Tris-HCl (pH 7.4 at 25° C.) and in the presence or the absence of compound Example 3 (30 μM) for up to 120 minutes. Aliquots of the samples were taken at several time points and subjected to SDS-polyacrylamide gel electrophoresis (SDS-PAGE) as described by Laemmli U. K., Nature 1970;[…]. Casein and its fragments were visualized by Coomassie G250 staining of the gel."}, "trypsin": {"target": "T4, trypsin (Bos taurus, UniProt P00760)", "T4 construct": "purchased Sigma T8003; host or cells: bovine pancreas", "T4 sequence (P00760 24-246)": "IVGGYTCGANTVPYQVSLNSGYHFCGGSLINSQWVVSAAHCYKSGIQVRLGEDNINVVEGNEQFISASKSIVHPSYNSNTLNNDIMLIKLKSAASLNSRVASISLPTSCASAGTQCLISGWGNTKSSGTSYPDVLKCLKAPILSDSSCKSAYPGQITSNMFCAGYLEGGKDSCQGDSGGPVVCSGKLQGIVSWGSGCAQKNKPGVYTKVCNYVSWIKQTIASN", "experiment": "Selectivity: trypsin protease assay (casein substrate)", "assay_type": "biochemical, bovine", "settings": "Table II; read-out: Inhibitory Activity of Thiol-Acrylates, Trypsin (IC50)", "protocol": "as §2"}, "calpain I [5]": {"target": "T1, calpain I", "experiment": "Calpain inhibition after treatment with rabbit liver esterase", "assay_type": "biochemical", "set-up": "casein substrate", "settings": "FIG. I", "protocol": "as §1, with “Calpain I was purified from human erythrocytes as described by Wang K. K. W., Roufogalis B. D., Villalobo A., Arch Biochem Biophys 1988;267:317-327.Calpain activity was assayed in a 96-well microplate format (Buroker-Kilgore M., Wang K. K. W., Anal Biochem 1993;208:387-392). In” for “In”\nVarious concentrations of the compound of Example 6 (250 nM to 2.5 mM) were pretreated with 0.2 unit rabbit liver esterase (Sigma E9636) in 50 μL containing 50 mM Tris-HCl (pH 7.4 at 25° C.), 5 mM DTT at 25° C. for 60 minutes. The mixture was then tested for calpain inhibition with the calpain assay described above.\nThe esterase presumably hydrolyzed the only ester bond in the molecule, producing the free acid compound which is identical to the compound of Example 3."}, "myocardiac infraction": {"system": "myocardiac infraction", "settings": "dogs, coronary reperfusion after acute myocardiac infraction; cited from earlier work"}, "smooth muscle cells": {"system": "smooth muscle cells", "settings": "cited from earlier work"}, "restenosis": {"system": "restenosis", "settings": "in vivo; cited from earlier work"}, "[6]": {"settings": "Table I, 4 mM CaCl2, pH 7.4, 25° C., 60 minutes, read-out: Inhibitory Activity Against Human Calpain I IC50"}},
  "note": "“Also recorded” adds a separate entry of the source. Where two headings read alike, the source gives them in different places. Square brackets hold non-standard residues; d marks the D form. Peptide text beside a SMILES is read from it. Nle = CCCC[C@H](N)C(=O)O",
  "data": [
    {"compound": "O=C(O)/C(S)=C/c1ccc2ccccc2c1", "note": "[Example 3, (Z)-2-Propenoic Acid, 2-mercapto-3-(7-naphthalenyl)]", "values": [
      {"measurement": "spectrin breakdown product (SBP) formation, 150 kDa and 145 kDa (in words)", "setting": "[1]", "result": "partially blocked SBP formation"},
      {"measurement": "IC50", "setting": "calpain I [2]; [6]", "result": 2.6, "unit": "µM"},
      {"measurement": "IC50", "setting": "calpain I [2]; Table II (selectivity), read-out: Inhibitory Activity of Thiol-Acrylates, Calpain (IC50)", "result": 2.4, "unit": "µM"},
      {"measurement": "block of NMDA-induced LDH release (in words)", "setting": "[3]", "result": "partially blocked"},
      {"measurement": "IC50", "setting": "papain", "result": "> 200", "unit": "µM"},
      {"measurement": "IC50", "setting": "thermolysin", "result": 394, "unit": "µM"},
      {"measurement": "degradation of casein by calpain I (in words)", "setting": "calpain I [4]", "result": "almost completely blocked the degradation of casein at all time points"},
      {"measurement": "IC50", "setting": "trypsin", "result": "> 200", "unit": "µM"}
    ]},
    {"compound": "CCOC(=O)/C(S)=C/c1ccc2ccccc2c1", "note": "[Example 6, Ethyl 2-Propenoic Acid, (Z)-2-mercapto-3-(2-naphthalenyl)-, Ethyl Ester]", "values": [
      {"measurement": "IC50", "setting": "calpain I [2]; [6]", "result": "> 500", "unit": "µM"},
      {"measurement": "inhibition of calpain upon preincubation with esterase (in words)", "setting": "calpain I [5]; 0.2 unit rabbit liver esterase, 60 minutes", "result": "shows activity only after it is hydrolyzed by cellular esterase; also recorded: strong inhibition on calpain"},
      {"measurement": "inhibition of calpain I without esterase (in words)", "setting": "calpain I [5]; as high as 500 μM, no esterase", "result": "did not inhibit calpain I"}
    ]},
    {"compound": "CC(C)CCNC(=O)[C@H](CC(C)C)NC(=O)[C@H]1O[C@@H]1C(=O)O", "note": "[Example E64c]", "values": [
      {"measurement": "size of infract", "setting": "myocardiac infraction", "result": "significantly reduce the size of infract"}
    ]},
    {"compound": "CCCC[C@@H](C=O)NC(=O)[C@H](CC(C)C)NC(=O)[C@H](CC(C)C)NC(C)=O", "note": "[calpain inhibitor I] (Ac-Leu-Leu-[Nle]-aldehyde)", "values": [
      {"measurement": "proliferation and migration of smooth muscle cells to the neoinitimal layer", "setting": "smooth muscle cells", "result": "controlling proliferation and migration of smooth muscle cells"},
      {"measurement": "inhibition of restenosis", "setting": "restenosis", "result": "inhibit restenosis"}
    ]}
  ]
}
